Experimental data from patent US10294202B2, “Pyrrolidinones as herbicides” (FMC Corporation, priority 2013, dated 2019).

Tests used:
morningglory = test: Test A pre-/postemergence herbicide test; format: in vivo, Ipomoea spp.; details: 1000 g ai/ha
Method in brief: (§1)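 Scoring was visual, relative to untreated controls, on a 0–100 scale after about 10 greenhouse days. Preemergence treatment used a directed soil spray over seeded loam/sand; postemergence treatment targeted one- to two-leaf plants of 2–10 cm.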

barnyardgrass [1] = test: Test A pre-/postemergence herbicide test; format: in vivo, Echinochloa crus-galli
Method in brief: as §1

giant foxtail = test: Test A pre-/postemergence herbicide test; format: in vivo, Setaria faberii
Method in brief: as §1

velvetleaf = test: Test A pre-/postemergence herbicide test; format: in vivo, Abutilon theophrasti; details: 1000 g ai/ha
Method in brief: as §1

pigweed = test: Test A pre-/postemergence herbicide test; format: in vivo, Amaranthus retroflexus
Method in brief: as §1

ducksalad = test: Test C flooded paddy test; format: in vivo, Heteranthera limosa; details: Flood
Excerpt: (§2) Plant species in the flooded paddy test consisted of rice (Oryza sativa), sedge, umbrella (small-flower umbrella sedge, Cyperus difformis), ducksalad (Heteranthera limosa), and barnyardgrass (Echinochloa crus-galli) grown to the 2-leaf stage for testing. At time of treatment, test pots were flooded to 3 cm above the soil surface, treated by application of test compounds directly to the paddy water, and then maintained at that water depth for the duration of the test. Treated plants and controls were maintained in a greenhouse for 13 to 15 days, after which time all species were compared to controls and visually evaluated. Plant response ratings, summarized in Table C, are based on a scale of 0 to 100 where 0 is no effect and 100 is complete control. A dash (-) response means no test result.

corn = test: Test A pre-/postemergence herbicide test; format: in vivo, Zea mays
Method in brief: as §1

wheat = test: Test A pre-/postemergence herbicide test; format: in vivo, Triticum aestivum
Method in brief: as §1

sedge, umbrella = test: Test C flooded paddy test; format: in vivo, Cyperus difformis; details: Flood
Excerpt: as §2

crabgrass, large = test: Test A pre-/postemergence herbicide test; format: in vivo, Digitaria sanguinalis; details: 1000 g ai/ha
Method in brief: as §1

barnyardgrass [2] = test: Test C flooded paddy test; format: in vivo, Echinochloa crus-galli; details: Flood
Excerpt: as §2

rice = test: Test C flooded paddy test; format: in vivo, Oryza sativa; details: Flood
Excerpt: as §2

ragweed = test: Test A pre-/postemergence herbicide test; format: in vivo, Ambrosia elatior; details: for Plant response rating, Ragweed: 0 to 100 scale
Method in brief: as §1

blackgrass = test: Test A postemergence herbicide test; format: in vivo, Alopecurus myosuroides
Method in brief: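 Young potted plants in a loam–sand mix, one- to two-leaf stage and 2–10 cm tall, receive the test chemical postemergence and stay in a greenhouse for approximately 10 days. Injury is then judged by eye against untreated plants, scored 0 (none) to 100 (complete control).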

ryegrass, Italian = test: Test A pre-/postemergence herbicide test; format: in vivo, Lolium multiflorum; details: for Plant response rating, Ryegrass, Italian: 0 to 100 scale
Method in brief: as §1

kochia = test: Test A pre-/postemergence herbicide test; format: in vivo, Kochia scoparia; details: for Plant response rating, Kochia: 0 to 100 scale
Method in brief: as §1

galium = test: Test A postemergence herbicide test; format: in vivo, Galium aparine
Excerpt: At the same time, plants selected from these crop and weed species and also blackgrass (Alopecurus myosuroides), and galium (catchweed bedstraw, Galium aparine) were planted in pots containing the same blend of loam soil and sand and treated with postemergence applications of test chemicals formulated in the same manner. Plants ranged in height from 2 to 10 cm and were in the one- to two-leaf stage for the postemergence treatment. Treated plants and untreated controls were maintained in a greenhouse for approximately 10 days, after which time all treated plants were compared to untreated controls and visually evaluated for injury. Plant response ratings, summarized in Table A, are based on a 0 to 100 scale where 0 is no effect and 100 is complete control. A dash (-) response means no test result.

[3] = Postemergence, 0 to 100 scale (0 no effect, 100 complete control)
[4] = Preemergence, visual rating on 0 to 100 scale (0 no effect, 100 complete control), approx. 10 days
[5] = Postemergence, 1000 g ai/ha, 0 to 100 scale (0 no effect, 100 complete control)
[6] = Preemergence, 1000 g ai/ha, visual rating on 0 to 100 scale (0 no effect, 100 complete control), approx. 10 days
[7] = 62 g ai/ha, scale of 0 to 100 where 0 is no effect and 100 is complete control, 13 to 15 days
[8] = 125 g ai/ha, visual rating, 0 to 100 scale, 0 no effect, 100 complete control, approximately 10 days, preemergence
[9] = Postemergence, 125 g ai/ha, 0 to 100 scale, 0 is no effect, 100 is complete control
[10] = preemergence, 500 g ai/ha, 0 to 100 scale, 0 is no effect and 100 is complete control
[11] = 125 g ai/ha, visual rating, 0 no effect, 100 complete control, approximately 10 days, preemergence
[12] = Postemergence, 125 g ai/ha, 0 is no effect, 100 is complete control
[13] = preemergence, 500 g ai/ha, 0 is no effect and 100 is complete control
[14] = 125 g ai/ha, 0 to 100 scale, 0 is no effect, 100 is complete control

O=C1NCC(c2ccc(Cl)c(Cl)c2)C1C(=O)Nc1cccc(F)c1 (racemic) [Compound 27]
Plant response rating, Morningglory (morningglory; [3]): 0
Plant response rating, Morningglory (morningglory; [4]): 0
Plant response rating, Barnyardgrass (barnyardgrass [1]; [5]): 70
Plant response rating, Barnyardgrass (barnyardgrass [1]; [6]): 70
Plant response rating, Foxtail, Giant (giant foxtail; [5]): 60
Plant response rating, Foxtail, Giant (giant foxtail; [6]): 90
Plant response rating, Velvetleaf (velvetleaf; [3]): 0
Plant response rating, Velvetleaf (velvetleaf; [4]): 0
Plant response rating, Pigweed (pigweed; [5]): 0
Plant response rating, Pigweed (pigweed; [6]): 0
Plant response rating, Ducksalad (ducksalad; [7]): 0
Plant response rating, Ducksalad (ducksalad; 250 g ai/ha, scale 0 to 100): 30
Plant response rating, Corn (corn; [5]): 0
Plant response rating, Corn (corn; [6]): 0
Plant response rating, Wheat (wheat; [5]): 0
Plant response rating, Wheat (wheat; [6]): 0
Plant response rating, Sedge, Umbrella (sedge, umbrella; [7]): 0
Plant response rating, Sedge, Umbrella (sedge, umbrella; 250 g ai/ha, scale 0 to 100): 0
Plant response rating, Crabgrass, Large (crabgrass, large; [3]): 70
Plant response rating, Crabgrass, Large (crabgrass, large; [4]): 90
Plant response rating, Barnyardgrass (barnyardgrass [2]; [7]): 0
Plant response rating, Barnyardgrass (barnyardgrass [2]; 250 g ai/ha, scale 0 to 100): 0
Plant response rating, Rice (rice; [7]): 0
Plant response rating, Rice (rice; 250 g ai/ha, scale 0 to 100): 0

Cc1cc(NC(=O)C2C(=O)NCC2c2cccc(C(F)(F)F)c2)ccc1F (racemic) [Compound 185]
Plant response rating, Barnyardgrass (barnyardgrass [1]; [8]): 40
Plant response rating, Barnyardgrass (barnyardgrass [1]; [9]): 40
Barnyardgrass plant response rating (0 to 100 scale, 0 is no effect, 100 is complete control) (barnyardgrass [1]; Postemergence, 500 g ai/ha): 80
Plant response rating, Barnyardgrass (barnyardgrass [1]; [10]): 70
Plant response rating, Foxtail, Giant (giant foxtail; [8]): 70
Plant response rating, Foxtail, Giant (giant foxtail; [9]): 20
Foxtail, Giant plant response rating (0 to 100 scale, 0 is no effect, 100 is complete control) (giant foxtail; Postemergence, 500 g ai/ha): 80
Plant response rating, Foxtail, Giant (giant foxtail; [10]): 90
Plant response rating, Pigweed (pigweed; [8]): 0
Plant response rating, Pigweed (pigweed; [9]): 0
Pigweed plant response rating (0 to 100 scale, 0 is no effect, 100 is complete control) (pigweed; Postemergence, 500 g ai/ha): 0
Plant response rating, Pigweed (pigweed; [10]): 20
Plant response rating, Ragweed (ragweed; [11]): 0
Plant response rating, Ragweed (ragweed; [12]): 0
Ragweed plant response rating (0 to 100 scale, 0 is no effect, 100 is complete control) (ragweed; Postemergence, 500 g ai/ha): 0
Plant response rating, Ragweed (ragweed; [13]): 0
Plant response rating, Blackgrass (blackgrass; [14]): 0
Blackgrass plant response rating (0 to 100 scale, 0 is no effect, 100 is complete control) (blackgrass; 500 g ai/ha): 20
Plant response rating, Corn (corn; [9]): 0
Corn plant response rating (0 to 100 scale, 0 is no effect, 100 is complete control) (corn; Postemergence, 500 g ai/ha): 20
Plant response rating, Ryegrass, Italian (ryegrass, Italian; [11]): 0
Plant response rating, Ryegrass, Italian (ryegrass, Italian; [12]): 0
Ryegrass, Italian plant response rating (0 to 100 scale, 0 is no effect, 100 is complete control) (ryegrass, Italian; Postemergence, 500 g ai/ha): 0
Plant response rating, Ryegrass, Italian (ryegrass, Italian; [13]): 20
Plant response rating, Kochia (kochia; [11]): 0
Plant response rating, Kochia (kochia; [12]): 0
Kochia plant response rating (0 to 100 scale, 0 is no effect, 100 is complete control) (kochia; Postemergence, 500 g ai/ha): 0
Plant response rating, Kochia (kochia; [13]): 40
Plant response rating, Wheat (wheat; [9]): 0
Wheat plant response rating (0 to 100 scale, 0 is no effect, 100 is complete control) (wheat; Postemergence, 500 g ai/ha): 20
Plant response rating, Galium (galium; [14]): 0
Galium plant response rating (0 to 100 scale, 0 is no effect, 100 is complete control) (galium; 500 g ai/ha): 0
